The target in this test is T1, histamine 3 receptor (H3R) (Homo sapiens, UniProt Q9Y5N1).
T1 construct: expressed in transfected cells; host or cells: CHO cells (HR3-CHO cell line), membranes
T1 sequence (Q9Y5N1 whole entry): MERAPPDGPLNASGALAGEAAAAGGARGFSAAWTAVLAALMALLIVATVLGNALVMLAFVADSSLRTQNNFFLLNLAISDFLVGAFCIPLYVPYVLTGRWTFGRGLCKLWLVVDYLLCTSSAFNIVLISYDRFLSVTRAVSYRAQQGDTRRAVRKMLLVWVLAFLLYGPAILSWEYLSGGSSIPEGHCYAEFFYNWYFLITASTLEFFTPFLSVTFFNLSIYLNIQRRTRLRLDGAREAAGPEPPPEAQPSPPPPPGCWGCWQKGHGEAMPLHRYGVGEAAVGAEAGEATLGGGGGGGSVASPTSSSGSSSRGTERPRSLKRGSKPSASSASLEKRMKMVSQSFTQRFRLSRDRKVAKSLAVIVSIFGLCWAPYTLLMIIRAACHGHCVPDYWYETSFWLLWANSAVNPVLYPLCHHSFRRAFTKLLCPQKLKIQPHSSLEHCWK
As to the kind of experiment: Competition binding assay with 3H-(R)α-methylhistamine on membranes of the human HR3-CHO cell line. The settings on record: membrane of human HR3-CHO cell line; 3H(R)α-Methylhistamine 1 nM; Ki calculated from IC50 by Cheng-Prusoff equation. Here is the method:
Binding Assay with ^3H-(R)α-methylhistamine
Saturation binding experiments were performed using HR3-CHO membranes prepared as described in Takahashi, K, Tokita, S., Kotani, H. (2003) J. Pharmacol. Exp. Therapeutics 307, 213-218.
An appropriate amount of membrane (60 to 80 μg protein/well) was incubated with increasing concentrations of ^3H(R)α-Methylhistamine di-hydrochloride (0.10 to 10 nM). Non specific binding was determined using a 200 fold excess of cold (R)α-Methylhistamine dihydrobromide (500 nM final concentration). The incubation was carried out at room temperature (in deep-well plates shaking for three hours). The final volume in each well was 250 μl. The incubation was followed by rapid filtration on GF/B filters (pre-soaked with 100 μl of 0.5% PEI in Tris 50 mM shaking at 200 rpm for two hours). The filtration was made using a cell-harvester and the filter plates were then washed five times with ice cold washing buffer containing 0.5 M NaCl. After harvesting, the plates were dried at 55° C. for 60 min, then we added scintillation fluid (Microscint 40, 40 microl in each well) and the amount of radioactivity on the filter was determined in Packard top-counter after shaking the plates for two hours at 200 rpm at room temperature.
Binding Buffer: 50 mM Tris-HCl pH 7.4 and 5 mM MgCl2×6H2O pH 7.4. Washing Buffer: 50 mM Tris-HCl pH 7.4 and 5 mM MgCl2×6H2O and 0.5 M NaCl pH 7.4.
Indirect measurement of affinity of H3R inverse agonists: twelve increasing concentrations (ranging from 10 μM to 0.3 nM) of the selected compounds were always tested in competition binding experiments using membrane of the human HR3-CHO cell line. An appropriate amount of protein, e.g. approximately 500 cpm binding of RAMH at Kd, were incubated for 1 hour at room temperature in 250 μl final volume in 96-well plates in presence of ^3H(R)α-Methylhistamine (1 nM final concentration=Kd). Non-specific binding was determined using a 200 fold excess of cold (R)α-Methylhistamine dihydrobromide.
All compounds were tested at a single concentration in duplicates.
A word on the Ki: it is the equilibrium dissociation constant of an inhibitor or competing ligand from its target. For the molecule `CC(C)N1CCC(Oc2cnc3c(c2)cc(C(=O)N2CCC(F)(F)CC2)n3C(C)C)CC1` [Example 22, (4,4-Difluoro-piperidin-1-yl)-[1-isopropyl-5-(1-isopropyl-piperidin-4-yloxy)-1H-pyrrolo[2,3-b]pyridin-2-yl]-methanone], the Ki is 9.4 nM.

For `CC(C)N1CCC(Oc2cnc3[nH]c(C(=O)N4CCC(F)(F)CC4)cc3c2)CC1` [Example 13, (4,4-Difluoro-piperidin-1-yl)-[5-(1-isopropyl-piperidin-4-yloxy)-1H-pyrrolo[2,3-b]pyridin-2-yl]-methanone], the Ki was 28.9 nM.

Regarding `O=C(c1cc2cc(OCCCN3CCCC3)cnc2[nH]1)N1CCOCC1` [Example 5, Morpholin-4-yl-[5-(3-pyrrolidin-1-yl-propoxy)-1H-pyrrolo[2,3-b]pyridin-2-yl]-methanone], the Ki is 25.5 nM.
